Laboratory results as given in ChEMBL document CHEMBL4364346, “Structure optimization of a new class of PPARγ antagonists” (Bioorg Med Chem, 2019).
The source made the active and inactive calls. No cut-off for these calls is given here.

Experiments:
[1] = target: T1, Vitamin D3 receptor (Homo sapiens) (UniProt P11473); test: Agonist activity at recombinant human pFA-CMV fused VDR LBD transfected in HEK293T cells assessed as VDR activation at 1 uM incubated for 12 to 14 hrs by dual glo luciferase reporter gene assay; assay type: cell-based
T1 sequence (whole entry): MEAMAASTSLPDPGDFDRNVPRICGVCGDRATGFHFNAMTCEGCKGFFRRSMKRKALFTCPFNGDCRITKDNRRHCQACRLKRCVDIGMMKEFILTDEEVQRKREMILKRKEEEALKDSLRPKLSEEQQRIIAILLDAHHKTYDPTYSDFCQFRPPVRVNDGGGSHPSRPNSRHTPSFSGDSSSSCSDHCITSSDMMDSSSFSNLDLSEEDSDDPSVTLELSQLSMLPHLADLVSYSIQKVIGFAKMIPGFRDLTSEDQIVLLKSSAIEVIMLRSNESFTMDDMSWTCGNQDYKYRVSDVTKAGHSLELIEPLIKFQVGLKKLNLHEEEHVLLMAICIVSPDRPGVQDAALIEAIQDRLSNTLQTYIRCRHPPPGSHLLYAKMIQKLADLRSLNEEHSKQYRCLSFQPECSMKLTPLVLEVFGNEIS

[2] = Tmax in Swiss CD1 mouse at 1 mg/kg, ip measured upto 7 hrs by LC-MS analysis; assay type: ADME, organism-based; details: in vivo
[3] = Plasma concentration in Swiss CD1 mouse at 1 mg/kg, ip measured upto 3 hrs by LC-MS analysis; assay type: ADME, organism-based
[4] = target: T2, Peroxisome proliferator-activated receptor delta (Homo sapiens) (UniProt Q03181); test: Antagonist activity at recombinant human pFA-CMV fused PPARdelta LBD transfected in HEK293T cells assessed as reduction in L165041-induced PPARdelta activation at 1 uM incubated for 12 to 14 hrs by dual glo luciferase reporter gene assay; assay type: cell-based
T2 sequence (whole entry): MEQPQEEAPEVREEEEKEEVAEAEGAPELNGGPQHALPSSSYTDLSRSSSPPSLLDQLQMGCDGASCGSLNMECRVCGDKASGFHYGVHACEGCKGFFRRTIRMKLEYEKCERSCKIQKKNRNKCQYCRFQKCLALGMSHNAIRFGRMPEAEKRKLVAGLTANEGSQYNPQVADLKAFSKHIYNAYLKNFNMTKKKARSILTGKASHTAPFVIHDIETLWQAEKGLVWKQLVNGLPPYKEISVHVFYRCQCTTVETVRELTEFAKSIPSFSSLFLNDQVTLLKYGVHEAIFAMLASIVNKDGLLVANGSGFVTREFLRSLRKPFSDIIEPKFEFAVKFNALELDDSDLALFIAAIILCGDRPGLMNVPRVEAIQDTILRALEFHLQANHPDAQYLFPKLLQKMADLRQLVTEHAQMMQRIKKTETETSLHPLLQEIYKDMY

[5] = target: T3, Retinoic acid receptor alpha (Homo sapiens) (UniProt P10276); test: Agonist activity at recombinant human pFA-CMV fused RARalpha LBD transfected in HEK293T cells assessed as RARalpha activation at 1 uM incubated for 12 to 14 hrs by dual glo luciferase reporter gene assay; assay type: cell-based
T3 sequence (whole entry): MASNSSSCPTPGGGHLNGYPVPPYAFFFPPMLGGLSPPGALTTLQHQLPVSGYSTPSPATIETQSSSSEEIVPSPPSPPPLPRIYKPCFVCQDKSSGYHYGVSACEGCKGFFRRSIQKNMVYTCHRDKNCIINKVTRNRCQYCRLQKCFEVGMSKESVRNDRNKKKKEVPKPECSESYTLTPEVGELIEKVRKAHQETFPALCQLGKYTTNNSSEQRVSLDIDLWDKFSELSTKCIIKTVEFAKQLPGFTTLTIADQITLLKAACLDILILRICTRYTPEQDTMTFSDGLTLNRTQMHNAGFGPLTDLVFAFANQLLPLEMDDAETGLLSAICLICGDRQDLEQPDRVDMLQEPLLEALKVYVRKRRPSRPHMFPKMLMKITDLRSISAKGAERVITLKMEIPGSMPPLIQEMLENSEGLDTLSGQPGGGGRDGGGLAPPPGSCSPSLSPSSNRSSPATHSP

[6] = AUC (0 to 4 hrs) in Swiss CD1 mouse at 10 mg/kg, ip measured upto 4 hrs by LC-MS analysis; assay type: ADME, organism-based; set-up: time < 4 hr, dose 10 mg/kg, route intraperitoneal; details: in vivo
[7] = target: T4, Nuclear receptor subfamily 1 group I member 3 (Homo sapiens, UniProt Q14994); test: Agonist activity at recombinant human pFA-CMV fused CAR LBD transfected in HEK293T cells assessed as CAR activation at 1 uM incubated for 12 to 14 hrs by dual glo luciferase reporter gene assay; assay type: cell-based
T4 sequence (Q14994 whole entry): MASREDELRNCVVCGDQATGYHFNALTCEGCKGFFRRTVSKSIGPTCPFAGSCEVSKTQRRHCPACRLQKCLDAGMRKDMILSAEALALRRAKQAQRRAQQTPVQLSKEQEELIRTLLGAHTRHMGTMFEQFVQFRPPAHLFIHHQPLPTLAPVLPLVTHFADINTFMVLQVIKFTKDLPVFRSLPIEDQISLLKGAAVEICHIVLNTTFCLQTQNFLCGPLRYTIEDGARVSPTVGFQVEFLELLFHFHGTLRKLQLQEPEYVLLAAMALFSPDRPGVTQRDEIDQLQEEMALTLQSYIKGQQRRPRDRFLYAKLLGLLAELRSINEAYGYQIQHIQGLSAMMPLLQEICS

[8] = target: T4, Nuclear receptor subfamily 1 group I member 3; test: Antagonist activity at recombinant human pFA-CMV fused CAR LBD transfected in HEK293T cells assessed as reduction in CITCO-induced CAR activation at 1 uM incubated for 12 to 14 hrs by dual glo luciferase reporter gene assay; assay type: cell-based
[9] = target: T5, Bile acid receptor (Homo sapiens) (UniProt Q96RI1); test: Agonist activity at recombinant human pFA-CMV fused FXR LBD transfected in HEK293T cells assessed as FXR activation at 1 uM incubated for 12 to 14 hrs by dual glo luciferase reporter gene assay; assay type: cell-based
T5 sequence (whole entry): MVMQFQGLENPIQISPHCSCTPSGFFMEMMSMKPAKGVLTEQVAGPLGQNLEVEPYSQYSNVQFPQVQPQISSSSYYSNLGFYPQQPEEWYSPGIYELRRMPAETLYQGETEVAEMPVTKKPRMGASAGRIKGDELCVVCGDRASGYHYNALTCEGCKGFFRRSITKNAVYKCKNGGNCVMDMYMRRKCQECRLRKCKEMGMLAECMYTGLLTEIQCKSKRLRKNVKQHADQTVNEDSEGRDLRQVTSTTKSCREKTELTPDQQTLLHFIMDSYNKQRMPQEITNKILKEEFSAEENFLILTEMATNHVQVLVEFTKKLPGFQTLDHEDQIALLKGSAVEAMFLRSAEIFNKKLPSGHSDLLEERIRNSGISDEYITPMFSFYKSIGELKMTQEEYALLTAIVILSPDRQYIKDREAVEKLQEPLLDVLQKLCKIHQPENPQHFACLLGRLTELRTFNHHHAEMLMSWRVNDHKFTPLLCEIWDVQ

Activity [1]	Tmax [2] [h]	concentration at 3 h [3] [nM]	Activity [4]	Activity [5]	AUC(0-t) at 4 h [6] [ng·h/mL]	Activity [7]	Activity [8]	Activity [9]	SMILES
inactive	1	14	inactive	inactive	650	Active	Not Active	inactive	CCC/C(=C\c1cc(OCc2ccc3nc(C(F)(F)F)cc(OC)c3c2)ccc1OCC1CCN(C)CC1)C(=O)O
inactive	1	9.5	inactive	inactive	598	Not Active	Not Active	inactive	CCC/C(=C\c1cc(OCc2ccc3nc(C(F)(F)F)cc(OC)c3c2)ccc1OCCN1CCN(C)CC1)C(=O)O
